Earlier results on 3 compounds are cited in patent US6458376B1, “Nonaqueous fluorinated drug delivery suspensions” (Allergan, Inc., priority 1990, dated 2002).

For series [1] the following is noted: for Boiling point: ambient pressure.
For series [2] the following is noted: systemically administered.

On to `O` [Water, reference compound], for which, in series [1], the “Density @ 25° C.” value is 1.000 gms/mL, the “Kin. viscosity @ 25° C.” value is listed as 1.00 cst, the “Specific heat @ 25° C.” value is 1.00 g-cal/gm and the “Surface tension @ 25° C.” value is listed as 72.0 dynes/cm.

Consider `FC1(F)C(F)(F)C(F)(F)C2(F)C(F)(F)C(F)(F)C(F)(F)C(F)(F)C2(F)C1(F)F` (centres unmarked) [PFD, Perfluoro(decahydronaphthalene)], for which, in series [1], the “Density @ 25° C.” value was 1.929 gms/mL, the “Kin. viscosity @ 25° C.” value is on record as 2.9 cst, the “Specific heat @ 25° C.” value is listed as 0.22 g-cal/gm and the “Surface tension @ 25° C.” value is 19.3 dynes/cm. Besides, the Boiling point in series [1] was 142 °C. In series [2], the elimination half life entry is “about 7 days” and the “elimination half-life (in words)” value was “quite rapid”.

As for `FC1(F)C(F)(F)C(F)(F)C2(F)C(F)(C1(F)F)C(F)(F)C(F)(F)C1(F)C(F)(F)C(F)(F)C(F)(F)C(F)(F)C12F` (centres unmarked) [PPP, perfluoroperhydrophenanthrene], in series [1], the “Density @ 25° C.” value is listed as 2.016 gms/mL, the “Kin. viscosity @ 25° C.” value is on record as 8.0 cst, the “Specific heat @ 25° C.” value was 0.27 g-cal/gm and the “Surface tension @ 25° C.” value is 21.6 dynes/cm. For the same compound, in series [1], the Boiling point is 215 °C. Further, the “elimination half-life (in words)” value in series [2] is “quite rapid”.
